This is an account of results in patent US10301302B2, “Crystalline forms of N-(2-chloro-6-methy]phenvn-2-[F6-[4-(2-hvdroxvethvl)-L-piperazin-vil-2-methvil-4-pvrimidinvllaminol-5-thiazolecarboxamide and their process thereof” (MSN LABORATORIES PRIVATE LIMITED, priority 2015, dated 2019).

Data set [1] in a line: Solubility of the 1,2-propanediol solvate (stated advantage, no method given). The format is physicochemical. Conditions: advantageous property found by the inventors; no solvent or value given.
For data set [2] the following is noted: cited from earlier work.

As to `Cc1nc(Nc2ncc(C(=O)Nc3c(C)cccc3Cl)s2)cc(N2CCN(CCO)CC2)n1` [1,2-propanediol solvate, 1,2-Propanediol solvate of N-(2-chloro-6-methylphenyl)-2-[[6-[4-(2-hydroxyethyl)-1-piperazinyl]-2-methyl-4-pyrimidinyl]amino]-5-thiazolecarboxamide], in data set [1], the solubility entry was “good solubility”.

In the case of `Cc1nc(Nc2ncc(C(=O)Nc3c(C)cccc3Cl)s2)cc(N2CCN(CCO)CC2)n1` [Dasatinib, N-(2-chloro-6-methylphenyl)-2-[[6-[4-(2-hydroxyethyl)-1-piperazinyl]-2-methyl-4-pyrimidinyl]amino]-5-thiazole carboxamide], the “solubility in alcoholic solvents” value in data set [2] (alcoholic solvents like ethanol and methanol) was “slightly soluble”. Further, the solubility in water entry in data set [2] (water) was “insoluble”.
